In US20100130598A1, “METHODS FOR INDUCING PROGRAMMED CELL DEATH” (Novogen Research Pty Ltd., priority 2008, published 2010):

Assays:
Format in all cases: cell-based, human
EOC cells = test: Mitochondrial depolarization using JC-1 (flow cytometry); settings: 10 pg/ml (as printed, FIG. 5 legend)
Excerpt: Assay of mitochondrial depolarization using JC-1. After treatment, cells were trypsinized and stained with JC-1 dye using the Mitocapture™ mitochondrial apoptosis detection kit (BioVision Research Products, Mountain View, Calif.) according to manufacturer's instruction. Data was acquired using BD LSR II System and analyzed using BD FACSDiva Software™.

[1] = system: phosphorylated mTOR (p-mTOR); test: Western blot of EOC whole cell lysates for phospho-mTOR; settings: EOC cells, 10 g/ml (as printed, FIG. 3 legend), 15 mins post-treatment
Excerpt: (§1) Protein preparation and cellular fractionation. After drug treatment, protein was extracted and measured as previously described (Alvero et al, 2006). For separation of the cytoplasmic and mitochondrial fractions, cell pellets were processed using the ApoAlert™ Cell Fractionation Kit (BD Biosciences, San Jose, Calif.) according to the manufacturer's instructions. For separation of the cytoplasmic and nuclear fractions, pellets were processed using NE-PER Nuclear and Cytoplasmic Extraction (Pierce Biotechnology, Inc., Rockford, Ill.).
(§2) SDS-PAGE and Western blots. Cell lysates (20 μg protein) were denatured in sample buffer (2.5% SDS, 10% glycerol, 5% β-mercapto-ethanol, 0.15 M Tris (pH=6.8) and 0.01% bromophenol blue) and subjected to 12% SDS-PAGE as previously described (Kamsteeg et al, 2003). […]

[2] = system: ribosomal p70 S6 kinase (p-S6k); test: Western blot of EOC whole cell lysates for p-S6k; settings: EOC cells, 10 g/ml (as printed, FIG. 3 legend), 15 mins post-treatment
Excerpt: as §1, §2

[3] = system: phosphorylated Akt (p-Akt); test: Western blot of EOC whole cell lysates for phospho-Akt; settings: EOC cells, 10 g/ml (as printed, FIG. 2 legend), as early as 15 mins post-treatment
Excerpt: as §1, §2

MIAPaCa-2 cells [4] = test: Western blot analysis of apoptosis regulatory proteins, p21 and p53, MIAPaCa-2
Excerpt: (§3) Cells. Human pancreatic cell lines HPAC, MIAPaCa-2 and PANC-1 were obtained from the ATCC. (Manassas, Va.). The cells were maintained in DMEM media with Gln and high glucose (Mediatech, Manassas, Va.) with 10% fetal bovine serum (FBS, HyClone, Logan, Utah) and pencillin/streptomycin.
(§4) Antibodies. Antibodies utilised in this study specific to p53 and, p21 were obtained from (Calbiochem, EMD, San Diego, Calif.), Caspase 9, XIAP, COX IV, Bcl2 and Akt (Cell Signaling Technology, Danvers, Mass.), Caspase 2, Cytochrome c and Bid (BD Pharmingen, San Diego, Calif.). GAPDH (RDI, Concord, Mass.) or β-actin (Sigma, St. Louis, Mo.) was used as a housekeeping gene to standardize the protein loading on the gels and blots.
(§5) Western blot analysis. Cells were seeded on 100 mm tissue culture plates and grown overnight to ˜90% confluence. Cells were then treated with the drug combinations for indicated time points. After the final treatment step, the cells were lysed with 500 μL of a lysis buffer containing 1% Nonidet P-40, 0.1% SDS, 0.5% deoxycholate, 150 mM NaCl, 50 mM Tris-HCl pH7.5, 1 mM EDTA, 1 mM PMSF and protease inhibitors (Roche) on ice for 30 minutes. Cell lysates were harvested with a sterile cell scraper and centrifuged at 15,000×g for 15 minutes to remove cell debris. Protein was assayed by the BCA method (Pierce) and 50 μg aliquots were separated on 12%, T, 2.6%C SDS-PAGE gels. Proteins were electrophoretically transferred to PVDF membranes (Immobilon P, Millipore, Billerica, Mass.) by the wet transfer method. These membranes were probed with specific antibodies and with anti-GAPDH which was used as the housekeeping gene to standardize the protein loading. The blots were developed on X-ray films using HRP-conjugated secondary antibodies (Southern Biotech, Birmingham, Ala.) and a chemiluminescent substrate (ECL, Amersham, N.Y.).

MIAPaCa-2 cells [5] = test: Mitochondrial membrane potential by FACS (JC-1), MIAPaCa-2; settings: MIAPaCa-2, dose-dependent, 48 hrs of treatment
Description: as §3
FACS Analysis. Apoptosis was measured by FACS analysis using Annexin-V-FITC and propidium iodide (PI) (Biovision, Mountain View, Calif.) as probes (Ahn et al., 2003). Mitochondrial membrane potential was measured by FACS analysis using JC-1 (Biovision) as a probe (Ahn et al., 2003). Cell cycle was analyzed on ethanol-fixed, RNaseA-treated cells staining with PI. In each spectrum, 10,000 gated events were recorded and analyzed with a FACSCalibur (BD Biosciences. San Jose, Calif.). All experiments were done in triplicate, error bars represent one standard deviation. Caspase inhibitor I (zVAD-fmk) was obtained from Calbiochem.

HPAC cells = test: Western blot analysis of apoptosis regulatory proteins, p21 and p53, HPAC; settings: 10 μM
Excerpt: as §3, §4, §5

COc1ccc(C2c3ccc(O)c(C)c3OCC2c2ccc(O)cc2)cc1 (stereo not drawn) [Compound 1, 3-(4-hydroxyphenyl)-4-(4-methoxyphenyl)-8-methylchroman-7-ol]
cells having depolarized mitochondria (EOC cells; 1 h): 30% | cells having depolarized mitochondria (EOC cells; 4 h): 50% | p-mTOR level [1]: down-regulated | p-S6k level [2]: down-regulated | p-Akt level [3]: strong down-regulation

COc1ccc(C2c3ccc(O)cc3OCC2c2ccc(O)cc2)cc1 (stereo not drawn) [Compound 10, 3-(4-hydroxyphenyl)-4-(4-methoxyphenyl)chroman-7-ol]
expression of p53 (MIAPaCa-2 cells [4]; MIAPaCa-2 (mutant p53), 10 μM): unaffected | cleavage of Caspase 3 (MIAPaCa-2 cells [4]; MIAPaCa-2, 10 μM): did not cause significant cleavage | full-length Caspase 2 (48Kd) cleavage (MIAPaCa-2 cells [4]; MIAPaCa-2, 10 μM): cleaved | levels of Bcl2 (MIAPaCa-2 cells [4]; MIAPaCa-2, 10 μM): lowered | p21 (MIAPaCa-2 cells [4]; MIAPaCa-2, 10 μM): elevated | total Akt (MIAPaCa-2 cells [4]; MIAPaCa-2, 10 μM, early timepoint (4 hr)): reduced | Bid cleavage (MIAPaCa-2 cells [4]; MIAPaCa-2, 10 μM, over time): induced Bid cleavage over time | cleaved caspase 9 (17kd) (MIAPaCa-2 cells [4]; MIAPaCa-2, 10 μM, time course 0-48 hrs): initial drop in cleaved caspase 9 (17kd) followed by an increase after 16 hr | level of XIAP (MIAPaCa-2 cells [4]; MIAPaCa-2, 10 μM, degradation more pronounced than in HPAC): reduced | mitochondrial depolarization (MIAPaCa-2 cells [5]): depolarized | expression of p53 (HPAC cells; HPAC (wild type p53), by 48 hr): elevated | Bid cleavage (HPAC cells; HPAC): transitory increase | Caspase 2 cleavage (HPAC cells; HPAC): cleaved to a lesser extent | cleavage of Caspase 3 (HPAC cells; HPAC): did not cause significant cleavage | level of XIAP (HPAC cells; HPAC): reduced | levels of Bcl2 (HPAC cells; HPAC): lowered | p21 (HPAC cells; HPAC): essentially unchanged | total Akt (HPAC cells; HPAC, early timepoint (4 hr)): reduced | cleaved caspase 9 (17kd) (HPAC cells; HPAC, time course 0-48 hrs): initial drop in cleaved caspase 9 (17kd) followed by an increase after 16 hr
